Measured values taken from US20150352100A1, “USE OF SELECTIVE DELTA-OPIOID RECEPTOR ANTAGONISTS AND SPECIFIC SENSORY RECEPTOR LIGANDS” (priority 2013, published 2015).
“Also recorded” adds a separate entry of the source.

How the values were obtained:
[1] = tested on: primary human cultured fibroblasts; experiment: In-vitro wound scratch model, wound closure/migration; type: cell-based; details: for wound closure/migration, gap closure after 24 h: FIG. 16a, compared to control cells in DMSO diluent; for scratch wound closure after 24 h, remaining gap: FIG. 16b, all opioid antagonists 100 nM, compared to control without any antagonist
Method: All opioid antagonists were used in a concentration of 100 nM.
The stimulation of wound closure in fibroblasts by TGF-beta1 is not surprising. However, the stimulation by the DOR-Antagonist Naltrindole was not expected. In an additional experiment we tested the effect of various specific opioid receptor antagonists on the wound closure/migration of human primary fibroblasts using the in-vitro wound scratch assay.

TAS2R14 [2] = experiment: Calcium imaging (Fluo4-AM) of keratinocytes with TAS2R14 ligands; type: cell-based, human; details: for effect of blocker on calcium response to thujone: keratinocytes; for effect of blocker on calcium responses to thujone and FFA: human skin cells, suramin 100 μM; for calcium response: in the presence of 100 μM suramin, 1 mM thujone, FFA in N/TERT cells, n=4
Method: (§1) Maximal increases in fluorescence were generated in each recording by addition of the ionophore ionomycin at 1 μM, and calcium responses were calculated as percentages compared to maximal ionomycin signal.

[3] = tested on: 6 mm punch wounds on the back of mice; experiment: In vivo wound healing, 6 mm punch wounds, topical cream; details: 1% w/w cream on wounds twice every day; for wound healing (mean healing rate, macroscopic and microscopic): 10 mice per group, vs placebo
Method: The effects of selective DOR antagonist are tested in animal models of wound healing, preferably in mice, to determine whether a selective DOR antagonist improves the quality, rate or extent of wound healing.
In the present example, male mice of 3-4 months old were grouped into 5 groups and 10 in each group. Before experiment, mice are shaved one day before. Pentothal was used for anesthesia before experiments. Seven days experiments are used. Four wounds are made by cutting 6 mm diameter and 3 cm apart. Day 1 wound #1 for 7 day wound, Day 3 wound #2 for 5 day wound, Day 5 wound #3 for 3 day wound, Day 7 wound #4 for 1 day wound, Day 8 mice are sacrifice. […] At the end of experiments on Day 8, the biopsies will be taken from the mice and fixed in 4% formaldehyde and embedded in paraffin block.

DOR-mRNA expression = experiment: Semiquantification of DOR mRNA by real time PCR in cultured human primary skin cells; type: cell-based
Description: A: Semiquantification of DOR mRNA by Real Time PCR
It is important to mention, that human cultured melanocytes and keratinocytes express more MOR than DOR mRNA. However, fibroblasts express more DOR than MOR mRNA.

DOR protein expression = experiment: Western blot analysis of DOR protein expression in cultured human skin cells; type: cell-based
Description: B: Protein Expression of DOR by Western Blot Analysis: […]

[4] = tested on: Erk phosphorylation (ERK1/2); experiment: pERK activation protocol (western blot, anti-phospho ERK1/2) in primary keratinocytes; type: cell-based, human
Method: Primary keratinocytes were grown to 70% and replaced with supplement free medium 16-24 hours before the experiments. The strongly stimulating supplement (25 mg/l bovine pituitary extract and 2.5 ug/l epidermal growth factor, EGF) in complete KFSM (Gibco) medium was used as positive control. Cells were exposed to SNC 80 for 15 min, DMSO (blank control) 15 min, or FCS/complete K-SFM for 30 min at 37° C. […] Cells were lysed in 100 μl RIPA buffer and cell lysates frozen in liquid nitrogen.
Equal amount of protein were separated by electrophoresis over 10% polyacrylamid gels followed by protein transfer onto nitrocellulose membrane. Blots were transferred to primary antibody solution (anti-phospho ERK1/2 in 5% BSA/TBS-T) and incubated at 4° C. over night. After appropriate washing in TBS-T blots were incubated in secondary antibody (anti-rabbit Alexa-680 in 5% milk/TBS-T) for 45 min at room temperature in dark. Blots were washed 3× in TBS-T protected from light. Blots were imaged with the IR imager in 700 nm channel in a scan at 169 μm resolution.

TAS2R14 [5] = molecular target: T1, TAS2R14 (Homo sapiens, UniProt Q9NYV8); experiment: Calcium imaging (Fluo4-AM) of keratinocytes with TAS2R14 ligands; type: cell-based; details: for intracellular free calcium (fluorescence of fluo4): bath-application of 1 mM, primary keratinocytes and N/TERT cells
T1 construct: This has allowed functional studies of TAS2R14 to be carried out in a native setting; endogenous in cells; host or cells: human primary keratinocytes and N/TERT immortalised human keratinocytes
T1 sequence (Q9NYV8 1-317): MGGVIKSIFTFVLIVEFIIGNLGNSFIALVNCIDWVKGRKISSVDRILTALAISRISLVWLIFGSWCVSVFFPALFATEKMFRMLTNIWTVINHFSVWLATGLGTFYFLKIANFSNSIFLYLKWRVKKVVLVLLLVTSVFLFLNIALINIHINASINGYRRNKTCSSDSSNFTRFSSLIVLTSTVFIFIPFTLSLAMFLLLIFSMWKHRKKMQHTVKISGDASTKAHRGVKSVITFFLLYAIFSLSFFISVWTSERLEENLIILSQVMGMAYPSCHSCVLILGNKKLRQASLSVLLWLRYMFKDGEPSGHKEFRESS
Method: as §1

[6] = cultured human primary keratinocytes
[7] = human cultured fibroblasts, 24 h exposure
[8] = human cultured melanocytes, 6 h exposure
[9] = primary human cultured keratinocytes

TGFβ1: known stimulator of wound closure/migration
wound closure/migration, gap closure after 24 h [1]: significant improvement of wound closure/migration | wound closure/migration, gap closure after 24 h ([1]; listed as TGF-beta1): significant faster migration and wound closure

C1CCC[C@H]2CCCN3CC[C@@H](CCCCCC[C@@H]4CCCN5CC[C@@H](CC1)O[C@@H]45)O[C@@H]23 [Xestospongin, Xestospongin C]
effect of blocker on calcium response to thujone (TAS2R14 [2]): significantly attenuated; also recorded: highly significant inhibition

O=C1CC[C@@]2(O)[C@H]3Cc4ccc(O)c5c4[C@@]2(CCN3CC2CC2)[C@H]1O5 [Naltrexone]
wound healing (mean healing rate, macroscopic and microscopic) [3]: not effective

Ryanodine
effect of blocker on calcium response to thujone (TAS2R14 [2]): significantly attenuate

Oc1ccc2c3c1O[C@H]1c4[nH]c5ccccc5c4C[C@@]4(O)[C@@H](C2)N(CC2CC2)CC[C@]314 [Naltrindole, naltrindole]
DOR-mRNA expression (DOR-mRNA expression; cultured human primary fibroblasts): increases significantly | DOR-mRNA expression (DOR-mRNA expression; [6]): increases significantly | DOR-mRNA expression (DOR-mRNA expression; cultured human primary melanocytes): increases significantly | DOR-mRNA expression (DOR-mRNA expression; cultured human primary melanocytes, co-incubation of Naltrindole and agonist SNC-80): increases significantly | mRNA of DOR (DOR-mRNA expression; human keratinocytes and melanocytes pre-incubated for 3 hours with 10 μM Naltrindole, then exposed to SNC-80): massively up-regulated | DOR protein expression (DOR protein expression; [7]): important upregulation | DOR protein expression (DOR protein expression; [8]): important up-regulation; also recorded: upregulates | DOR protein expression (DOR protein expression; human cultured melanocytes, combination of antagonist Naltrindole and agonist SNC-80): can upregulate the protein as well; also recorded: can up-regulate the protein as well | DOR protein expression (DOR protein expression; [9]): important up-regulation; also recorded: up-regulates | wound healing (mean healing rate, macroscopic and microscopic) [3]: significantly improved wound healing at days 5 and 7 | wound healing (mean healing rate, macroscopic and microscopic) ([3]; listed as Naltrindol): significant better healing | improvement of wound healing ([3]; compared to placebo): 3 days | concentration that promotes phosphorylation of MAP kinase such as Erk ([4]; MAP kinase activation assay for selecting DOR antagonists): less than or equal to 10 μM | Erk phosphorylation (MAPK pathway ERK1/2) ([4]; primary human keratinocytes): strong stimulating effect; also recorded: massive activation of Erk | wound closure/migration, gap closure after 24 h [1]: significant faster migration and wound closure; also recorded: significant improvement of wound closure/migration

Cc1ccc(C(=O)Nc2ccc(S(=O)(=O)O)c3cc(S(=O)(=O)O)cc(S(=O)(=O)O)c23)cc1NC(=O)c1cccc(NC(=O)Nc2cccc(C(=O)Nc3cc(C(=O)Nc4ccc(S(=O)(=O)O)c5cc(S(=O)(=O)O)cc(S(=O)(=O)O)c45)ccc3C)c2)c1 [suramin]
effect of blocker on calcium responses to thujone and FFA (TAS2R14 [2]): significantly attenuated | effect of blocker on calcium responses to thujone and FFA (TAS2R14 [2]; listed as Suramin): attenuates significantly

CC(C)[C@]12CC(=O)[C@H](C)[C@H]1C2 [thujone, α-thujone]
intracellular free calcium (fluorescence of fluo4) (TAS2R14 [5]): robust increases in intracellular free calcium | calcium response (TAS2R14 [5]; control without suramin, 1 mM thujone, FFA in N/TERT cells, n=4): 84.2±5.5 percentage of ionomycin signal | calcium response (TAS2R14 [2]): 34.4±8.2 percentage of ionomycin signal

COc1cccc2c1[C@]13CCN(CC4CC4)[C@H](C2)[C@]1(OC)CCC(=O)C3 [Cyprodime]
scratch wound closure after 24 h, remaining gap [1]: no significant effects

O=C1CN(/N=C/c2ccc(-c3ccc([N+](=O)[O-])cc3)o2)C(O)=N1 [Dantrolene]
effect of blocker on calcium response to thujone (TAS2R14 [2]): significantly attenuate

Dalargin
wound healing (mean healing rate, macroscopic and microscopic) [3]: very significant advantage of a specific DOR antagonist over

C=CCN1C[C@H](C)N([C@H](c2ccc(C(=O)N(CC)CC)cc2)c2cccc(OC)c2)C[C@H]1C [SNC-80]
DOR-mRNA expression (DOR-mRNA expression; [6]): increases significantly | DOR protein expression (DOR protein expression; [7]): some up- and downregulation | DOR protein expression (DOR protein expression; [8]): not | DOR protein expression (DOR protein expression; [9]): important up-regulation; also recorded: up-regulates | wound healing (mean healing rate, macroscopic and microscopic) [3]: very significant advantage of a specific DOR antagonist over | effect on Naltrindole-stimulated Erk phosphorylation ([4]; primary human keratinocytes): antagonized | wound closure/migration, gap closure after 24 h [1]: does not seem to have any stimulation of migration; also recorded: does not seem to change migration

Oc1ccc2c3c1O[C@H]1c4oc5ccccc5c4C[C@@]4(O)[C@@H](C2)N(CC2CC2)CC[C@]314 [Naltriben]
scratch wound closure after 24 h, remaining gap [1]: more effective than the mixed DOR1/2 antagonist Naltrindole and much more effective than the DOR1 antagonist BNTX

COC(=O)/C=C/C(=O)N[C@@H]1CC[C@@]2(O)[C@H]3Cc4ccc(O)c5c4[C@@]2(CCN3CC2CC2)[C@H]1O5 [irreversible blocker of MOR (>KOR>>DOR), beta-Funaltrexamine]
scratch wound closure after 24 h, remaining gap [1]: no significant effects

O=C(O)c1ccccc1Nc1cccc(C(F)(F)F)c1 [FFA, flufenamic acid]
intracellular free calcium (fluorescence of fluo4) (TAS2R14 [5]): robust increases in intracellular free calcium | calcium response (TAS2R14 [2]): 31.0±7.0 percentage of ionomycin signal
